Molecules are shown by their SMILES. Bounds are passed on as bounds.

For test [1], the target named is T1, FLT3 (Homo sapiens, UniProt P36888).
T1 sequence (P36888 27-993): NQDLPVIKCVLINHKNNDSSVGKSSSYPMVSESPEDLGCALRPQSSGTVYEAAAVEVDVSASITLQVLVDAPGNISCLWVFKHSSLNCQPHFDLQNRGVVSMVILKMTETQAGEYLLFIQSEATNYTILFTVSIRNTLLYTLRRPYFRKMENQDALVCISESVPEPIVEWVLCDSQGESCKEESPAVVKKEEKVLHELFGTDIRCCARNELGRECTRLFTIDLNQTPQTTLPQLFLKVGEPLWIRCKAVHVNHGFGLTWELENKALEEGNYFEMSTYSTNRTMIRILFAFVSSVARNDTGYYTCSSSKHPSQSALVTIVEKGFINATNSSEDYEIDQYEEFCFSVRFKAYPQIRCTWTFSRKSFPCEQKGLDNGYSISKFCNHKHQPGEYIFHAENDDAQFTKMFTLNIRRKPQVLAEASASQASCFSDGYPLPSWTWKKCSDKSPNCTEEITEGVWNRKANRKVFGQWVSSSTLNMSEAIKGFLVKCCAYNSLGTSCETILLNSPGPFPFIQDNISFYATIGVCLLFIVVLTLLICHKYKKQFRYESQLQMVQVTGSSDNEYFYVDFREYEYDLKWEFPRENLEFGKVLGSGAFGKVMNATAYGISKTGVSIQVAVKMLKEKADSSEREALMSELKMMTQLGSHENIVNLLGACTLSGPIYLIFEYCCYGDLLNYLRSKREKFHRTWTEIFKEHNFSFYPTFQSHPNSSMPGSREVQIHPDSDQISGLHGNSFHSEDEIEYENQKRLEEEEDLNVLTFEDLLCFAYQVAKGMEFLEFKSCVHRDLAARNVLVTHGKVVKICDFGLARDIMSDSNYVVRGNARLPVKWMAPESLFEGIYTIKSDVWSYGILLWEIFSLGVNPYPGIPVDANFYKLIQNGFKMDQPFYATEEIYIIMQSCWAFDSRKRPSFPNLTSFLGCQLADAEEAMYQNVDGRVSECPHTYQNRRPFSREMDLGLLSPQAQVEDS
Description: TR-FRET kinase activity assay, FLT3. Particulars: ATP at Km, 60 minutes. It counts as biochemical. Summed up:
(§1)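 Enzyme + labelled peptide + cpd premixed; ATP at per-enzyme Km starts rxn. 60 min RT, HEPES pH 7.5/MgCl2/EGTA/Brij 35/DTT buffer. Stop 12.5 mM EDTA, Eu phospho-Ab 30 min dark, TR-FRET read → IC50.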
(In general: TR-FRET usually uses a lanthanide donor and a delayed reading to cut background.)

Test [2] deals with T2, AXL (Homo sapiens, UniProt P30530).
T2 sequence (P30530 26-894): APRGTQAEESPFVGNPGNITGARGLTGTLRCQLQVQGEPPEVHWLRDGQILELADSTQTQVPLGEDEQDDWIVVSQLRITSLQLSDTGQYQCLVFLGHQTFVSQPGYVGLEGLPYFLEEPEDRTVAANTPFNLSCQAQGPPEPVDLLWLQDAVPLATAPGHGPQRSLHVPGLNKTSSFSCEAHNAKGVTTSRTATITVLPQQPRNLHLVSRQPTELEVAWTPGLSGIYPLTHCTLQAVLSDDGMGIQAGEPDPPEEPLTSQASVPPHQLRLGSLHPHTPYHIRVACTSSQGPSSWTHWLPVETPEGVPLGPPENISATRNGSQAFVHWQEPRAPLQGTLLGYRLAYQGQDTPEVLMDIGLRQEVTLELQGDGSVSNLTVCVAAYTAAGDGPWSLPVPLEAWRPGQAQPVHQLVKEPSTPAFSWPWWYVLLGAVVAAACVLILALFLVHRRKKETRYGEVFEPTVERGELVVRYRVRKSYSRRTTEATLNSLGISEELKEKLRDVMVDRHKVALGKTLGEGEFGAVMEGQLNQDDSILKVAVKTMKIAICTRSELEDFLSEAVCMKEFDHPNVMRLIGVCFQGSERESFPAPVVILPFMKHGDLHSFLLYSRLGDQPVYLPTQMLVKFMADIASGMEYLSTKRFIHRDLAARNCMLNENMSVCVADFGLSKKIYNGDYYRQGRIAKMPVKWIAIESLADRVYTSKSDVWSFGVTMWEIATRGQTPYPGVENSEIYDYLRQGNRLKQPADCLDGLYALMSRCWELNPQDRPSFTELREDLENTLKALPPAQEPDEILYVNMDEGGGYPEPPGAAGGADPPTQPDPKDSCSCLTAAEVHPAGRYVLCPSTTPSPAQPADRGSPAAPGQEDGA
In words: TR-FRET kinase activity assay, AXL. It counts as biochemical. Particulars: ATP at Km, 60 minutes. Summed up:
as §1

For the compound `COC[C@H](C)Nc1ncc2c(-c3ccnc(N4CCN(S(=O)(=O)C(F)(F)F)CC4)c3)cc([C@H]3CC[C@H](O)CC3)n2n1` [Compound 487], the figures for the IC50 in test [1] and in test [2] were 1000 to 10000 nM and 100 to 1000 nM, respectively.

Turning to `COC[C@H](C)Nc1ncc2c(-c3ccnc(N4CCN(S(=O)(=O)C5CC5)CC4)c3)cc([C@H]3CC[C@H](O)CC3)n2n1` [Compound 491], the IC50 (as a rule, the point on the concentration scale where inhibition reaches its midpoint) is 100 to 1000 nM in test [1] and at most 100 nM in test [2].

On to `C[C@@H](COC(F)F)Nc1ncc2c(-c3cnn(CCS(C)(=O)=O)c3)cc([C@H]3CC[C@H](O)CC3)n2n1` [Compound 436], for which the IC50 in test [1] is 100 to 1000 nM; in test [2], at most 100 nM.

Consider `COC[C@H](C)Nc1ncc2c(C3=C[C@H]4CC[C@@H](C3)N4C(=O)N3CCOCC3)cc([C@H]3CC[C@H](O)CC3)n2n1` [Compound 469], for which the IC50 in test [1] was 100 to 1000 nM; in test [2], at most 100 nM.

With `COC[C@H](C)Nc1ncc2c(-c3cnn(C(C)(C)C(=O)N4Cc5nc(C)sc5C4)c3)cc([C@H]3CC[C@H](O)CC3)n2n1` [Compound 495], the IC50 in test [1] was 1000 to 10000 nM; in test [2], at most 100 nM.

Turning to `COC[C@H](C)Nc1ncc2c([C@H]3CC[C@@H](C(=O)N4CCOCC4)CC3)cc([C@H]3CC[C@H](O)CC3)n2n1` [Compound 484], the IC50 lay in the range of 1000 to 10000 nM in test [1] and 100 to 1000 nM in test [2].

Take `COC[C@H](C)Nc1ncc2c(-c3ccnc(F)c3)cc([C@H]3CC[C@H](O)CC3)n2n1` [Compound 505]: the results for the IC50 in test [1] and in test [2] were 1000 to 10000 nM and at most 100 nM, respectively.

As to `COC[C@H](C)Nc1ncc2c(-c3cnn(C[C@H]4CC(=O)N(C)C4)c3)cc([C@H]3CC[C@H](O)CC3)n2n1` [Compound 475], the IC50 in test [1] is 100 to 1000 nM; in test [2], at most 100 nM.

As to `CC[C@H](C)Nc1ncc2c(C3=CCNCC3)cc([C@H]3CC[C@H](O)CC3)n2n1` [Compound 130], the IC50 in test [1] and in test [2] was at most 100 nM in each case.

`CC[C@H](C)Nc1ncc2c(-c3ccc(CN4CCN(C)CC4)cc3)cc(C3CCC(C)(O)CC3)n2n1` (stereo in doubt) [Compound 131, (cis)-4-(2-((S)-sec-butylamino)-5-(4-((4-methylpiperazin-1-yl)methyl)phenyl)pyrrolo[2,1-f][1,2,4]triazin-7-yl)-1-methylcyclohexanol]: the half-maximal inhibitory concentration (IC50) in test [1] and in test [2] was at most 100 nM in each case.

With `COC[C@H](C)Nc1ncc2c(-c3ccnc(N4CCc5nc(C)sc5C4)c3)cc([C@H]3CC[C@H](O)CC3)n2n1` [Compound 509], the IC50 was 1000 to 10000 nM in test [1] and at most 100 nM in test [2].

For the compound `CC[C@H](C)Nc1ncc2c(-c3ccc(CN4CCN(C)CC4)cc3)cc([C@H]3CC[C@](C)(O)CC3)n2n1` (relative stereo) [Compound 132, (trans)-4-(2-((S)-sec-butylamino)-5-(4-((4-methylpiperazin-1-yl)methyl)phenyl)pyrrolo[2,1-f][1,2,4]triazin-7-yl)-1-methylcyclohexanol], the IC50 in test [1] and in test [2] was at most 100 nM throughout.

For the compound `COC[C@H](C)Nc1ncc2c(-c3cnn(C4COC4)c3)cc([C@H]3CC[C@](C)(O)CC3)n2n1` (single isomer, unassigned) [Compound 452], the IC50 is 100 to 1000 nM in test [1] and at most 100 nM in test [2].

As for `COC[C@H](C)Nc1ncc2c(-c3ccnc(N4CCNCC4)c3)cc([C@H]3CC[C@H](O)CC3)n2n1` [Compound 434], the IC50 in test [1] was 100 to 1000 nM; in test [2], at most 100 nM.

Regarding `COC[C@H](C)Nc1ncc2c(C3=C[C@H]4CC[C@@H](C3)N4)cc([C@H]3CC[C@H](O)CC3)n2n1` [Compound 467], the IC50 in test [1] was 1000 to 10000 nM; in test [2] it was at most 100 nM.

Turning to `COC[C@H](C)Nc1ncc2c(-c3cnn(C(C)(C)C(=O)N4CCOCC4)c3)cc(C3CCc4[nH]ncc4C3)n2n1` (some centres unmarked) [Compound 488], the IC50 in test [1] is 100 to 1000 nM; in test [2], at most 100 nM.

Regarding `COC[C@H](C)Nc1ncc2c(C3=CCNCC3)cc([C@H]3CC[C@H](O)CC3)n2n1` [Compound 443], the values for the IC50 in test [1] and in test [2] were 1000 to 10000 nM and at most 100 nM, respectively.

As for `COC[C@H](C)Nc1ncc2c(-c3ccnc(Oc4cccnc4)c3)cc([C@H]3CC[C@H](O)CC3)n2n1` [Compound 490], the IC50 in test [1] is 100 to 1000 nM; in test [2], at most 100 nM.

Take `COC[C@H](C)Nc1ncc2c(-c3ccnc(N4CCOC5(COC5)C4)c3)cc([C@H]3CC[C@H](O)CC3)n2n1` [Compound 480]: the IC50 in test [1] was 100 to 1000 nM; in test [2], at most 100 nM.

Take `COC[C@H](C)Nc1ncc2c(-c3cnn(CC4CCO4)c3)cc([C@H]3CC[C@H](O)CC3)n2n1` (some centres unmarked) [Compound 439]: the IC50 in test [1] was 100 to 1000 nM; in test [2] it was at most 100 nM.

Take `C[C@@H](CC(F)(F)F)Nc1ncc2c([C@H]3CC[C@@H](C(=O)N4CCOCC4)CC3)cc([C@H]3CC[C@H](O)CC3)n2n1` [Compound 446]: the IC50 in test [1] and in test [2] was at most 100 nM throughout.

As for `COC[C@H](C)Nc1ncc2c(C3=C[C@@H]4CC[C@H](C3)N4C(C)=O)cc([C@H]3CC[C@H](O)CC3)n2n1` [Compound 462], the IC50 was 100 to 1000 nM in test [1] and at most 100 nM in test [2].

Regarding `CC[C@H](C)Nc1ncc2c(C3CCOCC3)cc([C@H]3CC[C@H](O)CC3)n2n1` [Compound 129, (trans)-4-(2-((S)-sec-butylamino)-5-(tetrahydro-2H-pyran-4-yl)pyrrolo[2,1-f][1,2,4]triazin-7-yl)cyclohexanol], the IC50 in test [1] lay in the range of 1000 to 10000 nM; in test [2], 100 to 1000 nM.

`COC[C@H](C)Nc1ncc2c(-c3cnn(C[C@@H]4CC(=O)N(C)C4)c3)cc([C@H]3CC[C@H](O)CC3)n2n1` [Compound 473]: the IC50 is 100 to 1000 nM in test [1] and at most 100 nM in test [2].

In the case of `COC[C@H](C)Nc1ncc2c(-c3ccnc(N4CC5(COC5)C4)c3)cc([C@H]3CC[C@H](O)CC3)n2n1` [Compound 426], the half-maximal inhibitory concentration (IC50) was 100 to 1000 nM in test [1] and at most 100 nM in test [2].

For the compound `COC[C@H](C)Nc1ncc2c(C3=CCN(C(=O)OC(C)(C)C)CC3)cc([C@H]3CC[C@H](O)CC3)n2n1` [Compound 425], the IC50 in test [1] is 100 to 1000 nM; in test [2], at most 100 nM.

On to `COC[C@H](C)Nc1ncc2c(-c3cnn(C(C)(C)c4nnc(C)o4)c3)cc([C@H]3CC[C@H](O)CC3)n2n1` [Compound 440], for which the IC50 in test [1] is 1000 to 10000 nM; in test [2], at most 100 nM.

For the compound `COC[C@H](C)Nc1ncc2c(-c3cnn(C(C)(C)CN4CCOCC4)c3)cc([C@H]3CC[C@H](O)CC3)n2n1` [Compound 459], the IC50 in test [1] is 1000 to 10000 nM; in test [2], at most 100 nM.

Turning to `COC[C@H](C)Nc1ncc2c(C#N)cc([C@H]3CC[C@H](O)CC3)n2n1` [Compound 481], the half-maximal inhibitory concentration (IC50) in test [1] and in test [2] was 1000 to 10000 nM in each case.

Regarding `COC[C@H](C)Nc1ncc2c(-c3conc3C)cc([C@H]3CC[C@H](O)CC3)n2n1` [Compound 508], the IC50 in test [1] was 1000 to 10000 nM; in test [2] it was at most 100 nM.

Turning to `C[C@@H](COC(F)F)Nc1ncc2c(-c3cnn(CCC#N)c3)cc([C@H]3CC[C@H](O)CC3)n2n1` [Compound 437], the IC50 in test [1] and in test [2] was at most 100 nM in each case.

The values are drawn from patent publication US11040981B2, “Pyrrolotriazine compounds and methods of inhibiting TAM kinases” (Syros Pharmaceuticals, Inc., priority 2017, dated 2021).
